Here are results for 13 compounds from patent publication US20020081661A1 (Synaptic Pharmaceutical Corporation, priority 1992, published 2002).

Where two headings read alike, the source gives them in different places. Where only a bound is given, the exact number is not on record here.

One may read the EC50 as the concentration that produces a half-maximal response.

The target in assay [1] is T1, human 5-HT4 receptor S10-95 (CG-17) (Homo sapiens, UniProt Q13639).
T1 construct: Isolation of the full length human S10-95 cDNA clone; expressed in transfected cells; host or cells: COS-7 (transient, DEAE-dextran)
T1 sequence (Q13639 whole entry): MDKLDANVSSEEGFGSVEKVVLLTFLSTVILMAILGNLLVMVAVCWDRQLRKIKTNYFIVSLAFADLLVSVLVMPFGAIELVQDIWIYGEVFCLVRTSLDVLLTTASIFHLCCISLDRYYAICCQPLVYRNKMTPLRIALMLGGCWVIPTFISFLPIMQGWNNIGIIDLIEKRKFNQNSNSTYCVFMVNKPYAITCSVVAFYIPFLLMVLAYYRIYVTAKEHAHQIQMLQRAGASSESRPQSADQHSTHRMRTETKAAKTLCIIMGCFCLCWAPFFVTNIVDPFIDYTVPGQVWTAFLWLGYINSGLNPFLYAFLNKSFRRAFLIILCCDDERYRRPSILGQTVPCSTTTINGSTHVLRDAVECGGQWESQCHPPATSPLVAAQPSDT
As to the kind of experiment: [3H]5-HT displacement binding, human CG-17 clone. The following applies: for fold higher affinity for the human CG-17 clone: human CG-17 compared with rat clones; for activity at the CG-17 clone: [3H]5-HT displacement, up to concentration of 1 μM.
Protocol: (§2) Membrane Preparation: Membranes were prepared from transiently transfected COS-7 cells which were grown to 100% confluence. The cells were washed twice with phosphate-buffered saline, scraped from the culture dishes into 5 ml of ice-cold phosphate-buffered saline, and centrifuged at 200×g for 5 min at 4′. The pellet was resuspended in 2.5 ml of ice-cold Tris buffer (20 mM Tris -HCl, pH 7.4 at 23°, 5 mM EDTA), and homogenized by a Wheaton tissue grinder. The lysate was subsequently centrifuged at 200×g for 5 min at 4° to pellet large fragments which were discarded. The supernatant was collected and centrifuged at 40,000×g for 20 min at 4°. The pellet resulting from this centrifugation was washed once in ice-cold Tris wash buffer and finally resuspended in a final buffer containing 50 mM Tris-HCl and 0.5 mM EDTA, pH 7.4 at 23°. Membrane preparations were kept on ice and utilized within two hr for the radioligand binding assays.
(§3) The binding profile of drugs in competition experiments was established using 7 concentrations of compound. Incubation times were 30 min for both saturation and displacement studies. […] Binding was initiated by the addition of 50 μl membrane homogenates (10-20 μg). The reaction was terminated by rapid filtration through presoaked (0.5% polyethyleneimine) filters using 48R Cell Brandel Harvester (Gaithersburg, Md.). Subsequently, filters were washed for 5 sec with ice cold buffer (50 mM Tris HCL, pH 7.4 at 4° C.), dried and placed into vials containing 2.5 ml of Readi-Safe (Beckman, Fullerton, Calif.), and radioactivity was measured using a Beckman LS 6500C liquid scintillation counter. […] Binding data were analyzed by computer-assisted nonlinear regression analysis (Accufit and Accucomp, Lundon Software, Chagrin Falls, Ohio).

Assay [2] concerns the target T2, rat 5-HT4 receptor S10-87 (CG-7) (Rattus norvegicus, UniProt Q62758). As to the kind of experiment: [3H]GR113808 binding (saturation and displacement), COS-7 membranes, rat clone CG-7. Also noted: two individual full length cDNA clones, S10-87 and S10-95, were isolated; expressed in transfected cells; host or cells: COS-7 (transient, DEAE-dextran). The following applies: for effect on [3H]GR113808 binding: CG-7, concentrations up to 1 μM.
Protocol: as §2
(§4) The binding profile of drugs in competition experiments was established using 10-12 concentrations of compound. Incubation times were 30 min for both saturation and displacement studies.

The target of assay [3] is T2, rat 5-HT4 receptor S10-87 (CG-7). As to the kind of experiment: [3H]5-HT radioligand binding (saturation and displacement), membranes of Cos-7 cells transiently expressing rat S10-87 (CG-7).
Protocol: as §2, §3
For assay [4], the target named is T3, rat 5-HT4 (CG-8) receptor (Rattus norvegicus, UniProt Q62758).
T3 construct: two individual full length cDNA clones, S10-87 and S10-95, were isolated; expressed in transfected cells; host or cells: COS-7 (transient, DEAE-dextran)
T3 sequence (Q62758 whole entry): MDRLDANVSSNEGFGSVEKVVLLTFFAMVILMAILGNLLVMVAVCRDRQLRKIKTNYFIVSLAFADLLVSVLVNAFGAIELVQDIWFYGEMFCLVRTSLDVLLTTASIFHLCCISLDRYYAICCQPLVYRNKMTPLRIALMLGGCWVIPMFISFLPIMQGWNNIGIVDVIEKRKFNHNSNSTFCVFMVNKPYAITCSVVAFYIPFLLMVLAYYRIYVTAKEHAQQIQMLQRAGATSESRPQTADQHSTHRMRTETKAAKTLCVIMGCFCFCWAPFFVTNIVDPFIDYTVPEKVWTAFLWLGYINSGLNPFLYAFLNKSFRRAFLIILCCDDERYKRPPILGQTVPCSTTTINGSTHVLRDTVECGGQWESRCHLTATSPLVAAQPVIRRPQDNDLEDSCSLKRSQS
As to the kind of experiment: cAMP formation in intact Cos-7 cells transiently expressing CG-8. It is filed as cell-based. The settings on record: for I. A. (intrinsic activity): CG-8, maximum response normalized to 5-HT maximum = 1.0; for effect on responses to 5-HT: CG-8, 10 μM. As to the method: (§1) Measurement of cAMP Formation: The transiently transfected Cos-7 cells were incubated in Dulbecco's modified Eagle's medium, 5 mM theophylline, 10 mM Hepes (4-[2-Hydroxyethyl]-1-piperazineethanesulfonic acid), 10 μM pargyline, and/or appropriate concentrations of antagonists for 20 minutes at 37° C., 5% CO2. […] The media was aspirated and the reaction stopped by the addition of 100 mM HCl. The plates were stored at 4° C. for 15 minutes, centrifuged for 5 minutes, 500×g to pellet cellular debris, and the supernatant aliquotted and stored at −20° C. prior to assessment of cAMP formation by radioimmunoassay (cAMP Radioimmunoassay kit, Advanced Magnetics, Cambridge, Mass.). Radioactivity was quantitated using a Packard COBRA Auto Gamma Counter equipped with data reduction software. Functional data was fitted to a four parameter logistic equation to obtain response parameters (EC50, Emax, nH; Inplot, GraphPad, San Diego, Calif.).
(Cyclic AMP is a second messenger, typically raised through Gs and lowered through Gi signalling.)

The target in assay [5] is T4, rat 5-HT4 (CG-7) receptor (Rattus norvegicus, UniProt Q62758).
T4 construct: two individual full length cDNA clones, S10-87 and S10-95, were isolated; expressed in transfected cells; host or cells: COS-7 (transient, DEAE-dextran)
T4 sequence (Q62758 1-387 isoform Q62758-2): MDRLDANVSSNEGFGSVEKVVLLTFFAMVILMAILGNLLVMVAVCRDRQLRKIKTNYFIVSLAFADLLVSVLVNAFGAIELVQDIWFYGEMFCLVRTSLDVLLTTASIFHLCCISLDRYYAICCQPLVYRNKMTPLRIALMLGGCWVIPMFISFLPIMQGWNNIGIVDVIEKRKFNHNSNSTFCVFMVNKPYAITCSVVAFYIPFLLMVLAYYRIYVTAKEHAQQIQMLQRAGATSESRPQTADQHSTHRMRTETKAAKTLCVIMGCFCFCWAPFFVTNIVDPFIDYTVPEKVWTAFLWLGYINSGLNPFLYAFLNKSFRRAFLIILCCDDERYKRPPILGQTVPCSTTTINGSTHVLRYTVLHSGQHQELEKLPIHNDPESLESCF
As to the kind of experiment: cAMP formation in intact Cos-7 cells transiently expressing CG-7. Format: cell-based. The settings on record: for I. A. (intrinsic activity): CG-7, maximum response normalized to 5-HT maximum = 1.0; for effect on responses to 5-HT: CG-7, 10 μM. The protocol: as §1

For assay [6], the target named is rat 5-HT4 receptor S10-95 (CG-8) (Rattus norvegicus, UniProt Q62758). As to the kind of experiment: [3H]GR113808 binding (saturation and displacement), COS-7 membranes, rat clone CG-8. Also noted: two individual full length cDNA clones, S10-87 and S10-95, were isolated; expressed in transfected cells; host or cells: COS-7 (transient, DEAE-dextran). The following applies: for effect on [3H]GR113808 binding: CG-8, concentrations up to 1 μM.
Sequence of rat 5-HT4 receptor S10-95 (CG-8) (Q62758 whole entry): as the sequence (Q62758 whole entry) above
Protocol: as §2, §4

For assay [7], the target named is T5, 5-HT4 receptor, rat oesophagus (Rattus norvegicus, UniProt Q62758).
T5 construct: host or cells: rat oesophagus
T5 sequence (Q62758 whole entry): as above
The following applies: Grossmann et al., 1993; cited from earlier work.

Assay [8] deals with T6, 5-HT4 receptors, human brain (Homo sapiens, UniProt Q13639).
T6 construct: host or cells: human brain tissue
T6 sequence (Q13639 whole entry): as the sequence (Q13639 whole entry) above
The settings on record: Waeber et al. (1993); cited from earlier work.

Assay [9] has as its target T7, 5-HT4 receptors, guinea pig brain tissue (Cavia porcellus, UniProt O70528).
T7 construct: host or cells: guinea pig brain tissue
The following applies: Waeber et al., 1993, Grossmann et al.; cited from earlier work.

Assay [10] deals with T1, human 5-HT4 receptor S10-95 (CG-17). As to the kind of experiment: [3H]GR113808 saturation binding, human clone CG-17. The following applies: human CG-17, [3H]GR113808 0.005-[…], preliminary; read-out: Kd (saturation analysis).
Protocol: as §2, §4
Where [11] appears, read: Affinity constants (Ki), CG-7, 10 nM [3H]5-HT, mean ± SEM, >1000 estimated from one point displacement at 1 uM.
Setting [12] is: K1 (nM), CG-7, binding data using [3H]5-HT, Table 4.
Where [13] appears, read: CG-8, stimulation of basal cAMP release.
Setting [14] is: CG-7, stimulation of basal cAMP release.
The mark [15] stands for this setting: CG-7, 0.2-0.4 nM [3H]GR113808, single experiment, read-out: Affinity estimate K1.
Setting [16] is: CG-8, stimulation of basal cAMP release, means ± S.E.M. of three experiments, read-out: EC50.
Setting [17] is: CG-7, stimulation of basal cAMP release, means ± S.E.M. of three experiments, read-out: EC50.
[18] abbreviates: CG-8, 0.2-0.4 nM [3H]GR113808, single experiment, read-out: Affinity estimate K1.

T2 sequence (Q62758 1-387 isoform Q62758-2): as the sequence (Q62758 1-387 isoform Q62758-2) above
T7 sequence (O70528 whole entry): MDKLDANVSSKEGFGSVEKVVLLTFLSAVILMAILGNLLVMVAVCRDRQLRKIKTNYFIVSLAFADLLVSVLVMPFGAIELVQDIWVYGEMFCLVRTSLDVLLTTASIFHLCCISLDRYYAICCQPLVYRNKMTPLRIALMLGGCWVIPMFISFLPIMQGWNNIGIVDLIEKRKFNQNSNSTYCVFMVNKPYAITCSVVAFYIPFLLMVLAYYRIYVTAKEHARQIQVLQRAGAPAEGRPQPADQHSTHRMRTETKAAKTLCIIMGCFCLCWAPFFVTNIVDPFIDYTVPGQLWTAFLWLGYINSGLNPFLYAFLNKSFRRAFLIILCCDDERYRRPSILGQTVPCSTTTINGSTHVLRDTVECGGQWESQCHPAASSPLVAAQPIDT

With `COc1ccc2[nH]cc(CCN)c2c1` [5-MeOT, 5-methoxytryptamine], the Ki in assay [1] was 71 nM; in assay [2] (Affinity estimate K1, CG-7, 0.2-0.4 nM [3H]GR113808, single experiment), 438 nM; in assay [2] (KH (affinity for the high affinity state), CG-7, [3H]GR113808) it was 14 nM; in assay [2] (read-out: KL (affinity for the low affinity state), CG-7, [3H]GR113808) it was 658 nM; in assay [3] (setting [11]) it was 27.5 ± 5 nM; in [3] (setting [12]), 27 ± 5 nM. Further, the Ki in assay [6] stood at 518 nM. In addition, the “fold less potent at the human CG-17” value in assay [1] (human CG-17 compared to the rat clones) is listed as “approximately 3 fold”. In assay [1], the “fold higher affinity for the human CG-17 clone” value was roughly 5 fold. Besides, the “BH (percentage of high affinity sites)” value in assay [2] (CG-7, [3H]GR113808) is on record as 17%. Also, the “nH (Hill coefficient)” value in assay [2] (CG-7, [3H]GR113808) was “nH = 0.57”; in assay [6] (CG-8, [3H]GR113808), “nH = 0.66”. Besides, the figures for the 50% effective concentration (EC50) in [4] and in assay [5] were 31 ± 13 nM and 21 ± 6 nM, respectively. The “I. A. (intrinsic activity)” value in assay [4] and in [5] was 1.0 each time. Moreover, in assay [4] (setting [13]), the “fold lower affinity than 5-HT” value was “approximately equipotent”. Besides, the “times less potent than 5-HT” value in assay [5] (setting [14]) is on record as “approximately equipotent”.

In the case of `Cn1cc(C(=O)OCC2CCN(CCNS(C)(=O)=O)CC2)c2ccccc21` [GR113808], the “affinity from functional receptor assays” value in [7] is listed as “about 0.3 nM”.

For `CSc1ccc2c(c1)C(N1CCN(C)CC1)Cc1ccccc1S2` (centres unmarked) [methiothepin], the “effect on responses to 5-HT” value in [4] and in [5] was “not affected” throughout.

Consider `CC(N)Cc1c[nH]c2ccc(O)cc12` (stereo not drawn) [α-Me-5-HT], for which the Ki is 1.6 nM in assay [1] (human CG-17, 10 nM [3H]5-HT, single experiment, >1,000 from one point displacement at 1 μM, read-out: Ki); 2260 nM in assay [2] (setting [15]); 1860 nM in assay [6] (setting [18]). The “fold higher affinity for the human CG-17 clone” value in assay [1] is recorded as “approximately 100 fold”. Further, the “I. A. (intrinsic activity)” value in assay [4] stood at 1.0; in assay [5] it was 0.90. The “fold lower affinity than 5-HT” value in [4] (setting [13]) was “approximately 20 fold”. Besides, the 50% effective concentration (EC50) came to 1040 nM in assay [4] (setting [16]) and 250 ± 91 nM in assay [5] (setting [17]). The “times less potent than 5-HT” value in assay [5] (setting [14]) is on record as “about 10 fold”.

`COc1cc(N)c(Cl)cc1C(=O)NC1CCN(CCCOc2ccc(F)cc2)CC1OC` (centres unmarked) [Cisapride, cisapride]: the Ki in assay [3] (setting [11]) is 10.9 ± 0.3 nM; in assay [3] (setting [12]), 11 ± 0.3 nM; in assay [6] (setting [18]) it was 84 nM; in assay [6] (CG-8, [3H]GR113808, read-out: KH (affinity for the high affinity state)), 2.7 nM; in [6] (read-out: KL (affinity for the low affinity state), CG-8, [3H]GR113808), 105 nM. The “agonist / antagonist character” value in assay [4] (CG-8, cAMP response) was “partial agonists”; in assay [5] (CG-7, cAMP response), “partial agonists”. In addition, the “I. A. (intrinsic activity)” value was 1.4 in assay [4] and 1.2 in [5]. Further, the EC50 in [4] (setting [16]) was 413 ± 199 nM; in assay [5] (setting [17]), 191 ± 26 nM. The “times less potent than 5-HT” value in [5] (setting [14]) is “about 10 fold”. In assay [6] (CG-8, [3H]GR113808), the “BH (percentage of high affinity sites)” value is listed as 11%. In addition, the “nH (Hill coefficient)” value in assay [6] (CG-8, [3H]GR113808) is on record as “nH = 0.83”.

Regarding `O=C(CCCN1CCC2(CC1)C(=O)NCN2c1ccccc1)c1ccc(F)cc1` [spiperone], the “effect on responses to 5-HT” value in assay [4] and in [5] was “not affected” in each case.

Consider `NCCc1c[nH]c2ccc(O)cc12` [5-HT, serotonin], for which the “BH (percentage of high affinity sites)” value in assay [2] (CG-7, [3H]GR113808) is recorded as 22%; in [6] (CG-8, [3H]GR113808), 24%. For the same compound, the “nH (Hill coefficient)” value in assay [2] (CG-7, [3H]GR113808) is “nH = 0.62”; in assay [6] (CG-8, [3H]GR113808) it was “nH = 0.67”. For the same compound, the “stimulation of basal cAMP release” value in [4] (CG-8, 1 μM, single dose preliminary study) is listed as “about 30 fold”; in assay [5] (CG-7, 1 μM, single dose preliminary study) it was “about 30 fold”. The “maximum cAMP release” value is on record as 0.57±0.04 pmol/ml/10 min in assay [4] (CG-8, FIG. 10) and 0.42±0.03 pmol/ml/10 min in assay [5] (CG-7, FIG. 9). The “I. A. (intrinsic activity)” value in [4] and in assay [5] was 1.0 throughout.

`O=C(c1ccc(F)cc1)C1CCN(CCn2c(=O)[nH]c3ccccc3c2=O)CC1` [Ketanserin, ketanserin]: in assay [1], the “activity at the CG-17 clone” value was “inactive”. Also, the Ki in assay [1] (read-out: Ki), in assay [3] and in [3] (setting [11]) was greater than 1000 nM each time. Further, the “effect on [3H]GR113808 binding” value in [2] and in assay [6] was “no effect” in each case.

For `CCCN(CCC)C1CCc2cccc(O)c2C1` (centres unmarked) [8-OH-DPAT, 8-hydroxy-2-(di-n-propylamino)tetralin], the Ki in assay [1], in assay [3] and in [3] (setting [11]) was greater than 1000 nM each time. Besides, the “activity at the CG-17 clone” value in [1] was “inactive”. Further, the “effect on [3H]GR113808 binding” value in [2] and in assay [6] was “no effect” each time.

Turning to `Cn1cc(C(=O)OCC2CCN(CCNS(C)(=O)=O)CC2)c2ccccc21` [[^3H]GR113808], the Kd in assay [8] is 0.23 to 0.37 nM; in assay [9] it was 0.13 to 0.2 nM; in assay [10] it was 0.2 nM.

On to `CNS(=O)(=O)Cc1ccc2[nH]cc(CCN(C)C)c2c1` [Sumatriptan, sumatriptan], for which the “activity at the CG-17 clone” value in [1] was “inactive”. In addition, the Ki in assay [1] (read-out: Ki), in assay [3] and in assay [3] (setting [11]) was greater than 1000 nM in each case. Also, the “effect on [3H]GR113808 binding” value in assay [2] and in assay [6] was “no effect” in each case.

As to `NCCc1c[nH]c2ccc(C(N)=O)cc12` [5-CT, 5-carboxyamidotryptamine], the Ki is greater than 10000 nM in [1]; greater than 10000 nM in [2] (setting [15]); greater than 1000 nM in [3] (setting [11]); greater than 1000 nM in assay [3] (setting [12]); greater than 1000 nM in assay [3] (Kf values estimated, S10, [3H]5-HT displacement, low affinity compounds); greater than 10000 nM in [6]. Also, the concentration for a half-maximal effect (EC50) in [4] was 1410 nM; in assay [5], 5570 nM. Further, the “I. A. (intrinsic activity)” value in [4] is on record as 1.2; in assay [5], 0.85. Moreover, the “fold lower affinity than 5-HT” value in assay [4] (setting [13]) is on record as “about 30 fold”. Besides, in assay [5] (setting [14]), the “times less potent than 5-HT” value is on record as roughly 200 fold.

As for `CCN(CC)C(=O)[C@@H]1C=C2c3cccc4[nH]cc(c34)C[C@H]2N(C)C1` [d-LSD], the Ki in [2] (setting [15]) and in assay [6] (setting [18]) was greater than 10000 nM throughout.
